Source: publication PMC5218480 (PLoS ONE, 2017)

Tested on: MV-4-11 cells
Experiment: Gene expression microarray analysis (Affymetrix PrimeView) and GSEA
Assay type: cell-based, human
Set-up: RFU PODN (11730768_x_at) / Fold change /veh PODN (11730768_x_at) / RFU LINC00158 (11744669_a_at) / Fold change /veh LINC00158 (11744669_a_at) / RFU DUSP10 (11751237_a_at) / Fold change /veh DUSP10 (11751237_a_at) / RFU ID3 (11757404_x_at) / Fold change /veh ID3 (11757404_x_at) / RFU PLEKHG5 (11737974_s_at) / Fold change /veh PLEKHG5 (11737974_s_at) / RFU LRRC4B (11730491_at) / Fold change /veh LRRC4B (11730491_at) / RFU GIMAP4 (11747438_a_at) / Fold change /veh GIMAP4 (11747438_a_at) / RFU KRT8 (11758183_x_at) / Fold change /veh KRT8 (11758183_x_at) / RFU CNN1 (11734310_a_at) / Fold change /veh CNN1 (11734310_a_at) / RFU VPS37D (11726825_at) / Fold change /veh VPS37D (11726825_at) / RFU C10orf10 (11716522_x_at) / Fold change /veh C10orf10 (11716522_x_at) / RFU KIR2DL2 /// KIR2DL4 /// KIR2DL5A /// KIR2DL5B /// KIR2DS1 /// KIR2DS2 /// KIR2DS3 /// KIR2DS4 /// KIR3DL3 /// KIR3DL3 /// KIR3DS1 (11738374_at) / Fold change /veh KIR2DL2 /// KIR2DL4 /// KIR2DL5A /// KIR2DL5B /// KIR2DS1 /// KIR2DS2 /// KIR2DS3 /// KIR2DS4 /// KIR3DL3 /// KIR3DL3 /// KIR3DS1 (11738374_at) / RFU C1QL1 (11718748_at) / Fold change /veh C1QL1 (11718748_at) / RFU TMPRSS4 (11747572_a_at) / Fold change /veh TMPRSS4 (11747572_a_at) / RFU HAMP (11756126_x_at) / Fold change /veh HAMP (11756126_x_at) / RFU RNFT2 (11725882_a_at) / Fold change /veh RNFT2 (11725882_a_at) / RFU NR4A2 (11747474_a_at) / Fold change /veh NR4A2 (11747474_a_at) / RFU ABCC12 (11746883_a_at) / Fold change /veh ABCC12 (11746883_a_at) / RFU TMEM136 (11760407_x_at) / Fold change /veh TMEM136 (11760407_x_at) / RFU CLDN22 /// WWC2 (11732394_at) / Fold change /veh CLDN22 /// WWC2 (11732394_at) / RFU HLA-DPB1 (11760878_x_at) / Fold change /veh HLA-DPB1 (11760878_x_at) / RFU SPINT1 (11716480_a_at) / Fold change /veh SPINT1 (11716480_a_at) / RFU GAP43 (11754022_s_at) / Fold change /veh GAP43 (11754022_s_at) / RFU A4GNT (11735810_at) / Fold change /veh A4GNT (11735810_at) / RFU PRB3 (11715151_x_at) / Fold change /veh PRB3 (11715151_x_at) / RFU TUBB4B (11761932_at) / Fold change /veh TUBB4B (11761932_at) / RFU CAPN14 (11732068_a_at) / Fold change /veh CAPN14 (11732068_a_at) / RFU TMCC2 (11721928_a_at) / Fold change /veh TMCC2 (11721928_a_at) / RFU IRGQ (11745062_a_at) / Fold change /veh IRGQ (11745062_a_at) / RFU FAM174B (11720279_a_at) / Fold change /veh FAM174B (11720279_a_at) / RFU TMPRSS4 (11748680_a_at) / Fold change /veh TMPRSS4 (11748680_a_at) / RFU FAM212B (11763350_a_at) / Fold change /veh FAM212B (11763350_a_at) / RFU PLEKHG5 (11743358_a_at) / Fold change /veh PLEKHG5 (11743358_a_at) / RFU ZSCAN30 (11745921_a_at) / Fold change /veh ZSCAN30 (11745921_a_at) / RFU CMKLR1 (11741424_a_at) / Fold change /veh CMKLR1 (11741424_a_at) / RFU LOC101060620 /// MAPK8IP1 (11723275_at) / Fold change /veh LOC101060620 /// MAPK8IP1 (11723275_at) / RFU SPTSSB (11747773_x_at) / Fold change /veh SPTSSB (11747773_x_at) / RFU PRSS12 (11739890_at) / Fold change /veh PRSS12 (11739890_at) / RFU BIN1 (11741810_x_at) / Fold change /veh BIN1 (11741810_x_at) / RFU WNT11 (11732464_a_at) / Fold change /veh WNT11 (11732464_a_at) / RFU C10orf10 (11716521_a_at) / Fold change /veh C10orf10 (11716521_a_at) / RFU C5orf56 (11738089_at) / Fold change /veh C5orf56 (11738089_at) / RFU CYB561 (11721691_x_at) / Fold change /veh CYB561 (11721691_x_at) / RFU ANKRD19P (11752326_a_at) / Fold change /veh ANKRD19P (11752326_a_at) / RFU OR2T12 /// OR2T33 /// OR2T8 (11738714_s_at) / Fold change /veh OR2T12 /// OR2T33 /// OR2T8 (11738714_s_at) / RFU VCAN (11748164_a_at) / Fold change /veh VCAN (11748164_a_at) / RFU JSRP1 (11732532_at) / Fold change /veh JSRP1 (11732532_at) / RFU KRTAP10-11 (11738290_x_at) / Fold change /veh KRTAP10-11 (11738290_x_at) / RFU MYO3A (11730013_a_at) / Fold change /veh MYO3A (11730013_a_at) / RFU EBF3 (11725865_a_at) / Fold change /veh EBF3 (11725865_a_at) / RFU CAMK2N1 (11719241_x_at) / Fold change /veh CAMK2N1 (11719241_x_at) / RFU C5orf56 (11738088_a_at) / Fold change /veh C5orf56 (11738088_a_at) / RFU OLFML3 (11715873_a_at) / Fold change /veh OLFML3 (11715873_a_at) / RFU LOC100653217 /// NTM (11731650_a_at) / Fold change /veh LOC100653217 /// NTM (11731650_a_at) / RFU MAPK11 (11762145_a_at) / Fold change /veh MAPK11 (11762145_a_at) / RFU FIZ1 (11724087_x_at) / Fold change /veh FIZ1 (11724087_x_at) / RFU OASL (11726364_x_at) / Fold change /veh OASL (11726364_x_at) / RFU SOX15 (11748057_x_at) / Fold change /veh SOX15 (11748057_x_at) / RFU CD79A (11719716_a_at) / Fold change /veh CD79A (11719716_a_at) / RFU HIST1H1D (11736915_at) / Fold change /veh HIST1H1D (11736915_at) / RFU CASKIN2 (11723855_a_at) / Fold change /veh CASKIN2 (11723855_a_at) / RFU LOC730098 (11760151_x_at) / Fold change /veh LOC730098 (11760151_x_at) / RFU OR4N2 (11742367_at) / Fold change /veh OR4N2 (11742367_at) / RFU PRRT2 (11749266_a_at) / Fold change /veh PRRT2 (11749266_a_at) / RFU SNX32 (11753110_a_at) / Fold change /veh SNX32 (11753110_a_at) / RFU CDHR5 (11726645_a_at) / Fold change /veh CDHR5 (11726645_a_at) / RFU RCAN1 (11760418_a_at) / Fold change /veh RCAN1 (11760418_a_at) / RFU FAM167A (11723789_a_at) / Fold change /veh FAM167A (11723789_a_at) / RFU FAM26E (11764081_at) / Fold change /veh FAM26E (11764081_at) / RFU ISYNA1 (11749810_s_at) / Fold change /veh ISYNA1 (11749810_s_at) / RFU ACY1 (11761880_at) / Fold change /veh ACY1 (11761880_at) / RFU 11764098_at / Fold change /veh 11764098_at / RFU SAMD14 (11745864_x_at) / Fold change /veh SAMD14 (11745864_x_at) / RFU NPB (11741838_a_at) / Fold change /veh NPB (11741838_a_at) / RFU TMPRSS6 (11731388_a_at) / Fold change /veh TMPRSS6 (11731388_a_at) / RFU KRTAP10-2 (11738614_at) / Fold change /veh KRTAP10-2 (11738614_at) / RFU ARHGAP8 /// PRR5-ARHGAP8 (11727945_x_at) / Fold change /veh ARHGAP8 /// PRR5-ARHGAP8 (11727945_x_at) / RFU KRTAP5-7 /// NADSYN1 (11734609_at) / Fold change /veh KRTAP5-7 /// NADSYN1 (11734609_at) / RFU RASL12 (11751679_a_at) / Fold change /veh RASL12 (11751679_a_at) / RFU CDKN2B (11736163_a_at) / Fold change /veh CDKN2B (11736163_a_at) / RFU PRF1 (11729649_at) / Fold change /veh PRF1 (11729649_at) / RFU, ZNF638 /// ZNF638-IT1 / Fold change vs veh, ZNF638 /// ZNF638-IT1 / RFU, PANK3 / Fold change vs veh, PANK3 / RFU, SH3YL1 / Fold change vs veh, SH3YL1 / RFU, ZEB2 / Fold change vs veh, ZEB2 / RFU, NRIP1 / Fold change vs veh, NRIP1 / RFU, PTTG1IP / Fold change vs veh, PTTG1IP / RFU, CAPN2 / Fold change vs veh, CAPN2 / RFU, MED14 / Fold change vs veh, MED14 / RFU, SNORA58 / Fold change vs veh, SNORA58 / RFU, C1orf63 / Fold change vs veh, C1orf63 / RFU, LRRFIP1 / Fold change vs veh, LRRFIP1 / RFU, NDUFAF7 / Fold change vs veh, NDUFAF7 / RFU, SLC12A2 / Fold change vs veh, SLC12A2 / RFU, IBTK / Fold change vs veh, IBTK / RFU, ESF1 / Fold change vs veh, ESF1 / Fold change vs veh, TMEM50B / RFU, TAOK1 / Fold change vs veh, TAOK1 / RFU, ACBD3 / Fold change vs veh, ACBD3 / RFU, TMA16 / Fold change vs veh, TMA16 / RFU, RWDD3 / Fold change vs veh, RWDD3 / RFU, BCAT1 / Fold change vs veh, BCAT1 / RFU, EDEM3 / Fold change vs veh, EDEM3 / RFU, TMEM33 / Fold change vs veh, TMEM33 / RFU, WDR75 / Fold change vs veh, WDR75 / RFU, AHCTF1 / Fold change vs veh, AHCTF1 / RFU, TFRC / Fold change vs veh, TFRC / RFU, ZDHHC17 / Fold change vs veh, ZDHHC17 / RFU, NOM1 / Fold change vs veh, NOM1 / RFU, ARL8B / Fold change vs veh, ARL8B / RFU, ZBTB11 / Fold change vs veh, ZBTB11 / RFU, TAMM41 / Fold change vs veh, TAMM41 / RFU, KIAA1704 /// LOC100996395 / Fold change vs veh, KIAA1704 /// LOC100996395 / RFU, ING1 / Fold change vs veh, ING1 / RFU, TRMT61B / Fold change vs veh, TRMT61B / RFU, FUBP3 / Fold change vs veh, FUBP3 / RFU, TP53 / Fold change vs veh, TP53 / RFU, TNKS2 / Fold change vs veh, TNKS2 / RFU, ZFP14 / Fold change vs veh, ZFP14 / RFU, ACTR2 / Fold change vs veh, ACTR2 / RFU, PPP3R1 / Fold change vs veh, PPP3R1 / RFU, PIK3R1 / Fold change vs veh, PIK3R1 / RFU, HNRNPA1 / Fold change vs veh, HNRNPA1 / RFU, RNF170 / Fold change vs veh, RNF170 / RFU, ZNF28 / Fold change vs veh, ZNF28 / RFU, RNGTT / Fold change vs veh, RNGTT / RFU, OGT / Fold change vs veh, OGT / RFU, BRD1 / Fold change vs veh, BRD1 / RFU, MARS / Fold change vs veh, MARS / RFU, ZNF655 / Fold change vs veh, ZNF655 / RFU, FAHD1 / Fold change vs veh, FAHD1 / RFU, BDP1 / Fold change vs veh, BDP1 / RFU, LRRCC1 / Fold change vs veh, LRRCC1 / RFU, ARID1A / Fold change vs veh, ARID1A / RFU, ZNF146 / Fold change vs veh, ZNF146 / RFU, ZNF330 / Fold change vs veh, ZNF330 / RFU, GPN3 / Fold change vs veh, GPN3 / RFU, C9orf123 / Fold change vs veh, C9orf123 / RFU, N4BP2L2 / Fold change vs veh, N4BP2L2 / RFU, ARFIP1 / Fold change vs veh, ARFIP1 / RFU, FAM179B / Fold change vs veh, FAM179B / RFU, BCL10 / Fold change vs veh, BCL10 / RFU, UHRF1BP1L / Fold change vs veh, UHRF1BP1L / RFU, BET1 / Fold change vs veh, BET1 / RFU, CNOT2 / Fold change vs veh, CNOT2 / RFU, ZNF268 / Fold change vs veh, ZNF268 / Fold change vs veh, ZNF507 / RFU, DGCR2 / Fold change vs veh, DGCR2 / RFU, WDSUB1 / Fold change vs veh, WDSUB1 / Fold change vs veh, HSP90B1 /// MIR3652 / RFU, ADSS / Fold change vs veh, ADSS / RFU, GK / Fold change vs veh, GK / RFU, ZNF148 / Fold change vs veh, ZNF148 / RFU, TAF9 / Fold change vs veh, TAF9 / RFU, SLC1A5 / Fold change vs veh, SLC1A5 / RFU, SLMO2 / Fold change vs veh, SLMO2 / RFU, ABCC4 / Fold change vs veh, ABCC4 / RFU, LOC101060439 /// RAP1B / Fold change vs veh, LOC101060439 /// RAP1B / RFU, RFX7 / Fold change vs veh, RFX7 / RFU, GTPBP10 / Fold change vs veh, GTPBP10 / RFU, CNEP1R1 / Fold change vs veh, CNEP1R1 / RFU, BIVM-ERCC5 /// ERCC5 / Fold change vs veh, BIVM-ERCC5 /// ERCC5 / RFU, ILF3 / Fold change vs veh, ILF3 / RFU 11762660_at / Fold change /veh 11762660_at / RFU VCAN (11757783_s_at) / Fold change /veh VCAN (11757783_s_at) / RFU DDX43 (11728927_at) / Fold change /veh DDX43 (11728927_at) / RFU KRT8 (11758188_x_at) / Fold change /veh KRT8 (11758188_x_at) / RFU NKD1 (11759106_at) / Fold change /veh NKD1 (11759106_at) / RFU SRD5A1 (11742802_a_at) / Fold change /veh SRD5A1 (11742802_a_at) / RFU TPSAB1 /// TPSB2 (11721975_s_at) / Fold change /veh TPSAB1 /// TPSB2 (11721975_s_at) / RFU GSTM3 (11746129_a_at) / Fold change /veh GSTM3 (11746129_a_at) / RFU IL23R (11737362_x_at) / Fold change /veh IL23R (11737362_x_at) / RFU TMEM51 (11727254_a_at) / Fold change /veh TMEM51 (11727254_a_at) / RFU PIWIL2 (11732686_x_at) / Fold change /veh PIWIL2 (11732686_x_at) / RFU ORM1 (11744905_x_at) / Fold change /veh ORM1 (11744905_x_at) / RFU CCDC152 (11743942_at) / Fold change /veh CCDC152 (11743942_at) / RFU ECM1 (11717891_a_at) / Fold change /veh ECM1 (11717891_a_at) / RFU IL23R (11748794_a_at) / Fold change /veh IL23R (11748794_a_at) / RFU TNFAIP8L3 (11732012_x_at) / Fold change /veh TNFAIP8L3 (11732012_x_at) / RFU MBOAT4 (11741988_at) / Fold change /veh MBOAT4 (11741988_at) / RFU 11764193_at / Fold change /veh 11764193_at / RFU TMEM53 (11763286_at) / Fold change /veh TMEM53 (11763286_at) / RFU MAGEB2 (11727129_at) / Fold change /veh MAGEB2 (11727129_at) / RFU TMEM200A (11744735_a_at) / Fold change /veh TMEM200A (11744735_a_at) / RFU CCDC152 (11751479_a_at) / Fold change /veh CCDC152 (11751479_a_at) / RFU FAM211A (11726209_a_at) / Fold change /veh FAM211A (11726209_a_at) / RFU RGS16 (11746705_a_at) / Fold change /veh RGS16 (11746705_a_at) / RFU VCAN (11755009_s_at) / Fold change /veh VCAN (11755009_s_at) / RFU RHOB (11743442_s_at) / Fold change /veh RHOB (11743442_s_at) / RFU RGS16 (11720943_a_at) / Fold change /veh RGS16 (11720943_a_at) / RFU RGS16 (11720944_at) / Fold change /veh RGS16 (11720944_at) / RFU, VPS4B / Fold change vs veh, VPS4B / RFU, CREB1 / Fold change vs veh, CREB1 / RFU, DNAJC13 / Fold change vs veh, DNAJC13 / RFU, GNAQ / Fold change vs veh, GNAQ / RFU, CDK5R1 / Fold change vs veh, CDK5R1 / RFU, ZRANB3 / Fold change vs veh, ZRANB3 / RFU, CUL4A / Fold change vs veh, CUL4A / RFU, CCNY / Fold change vs veh, CCNY / RFU, UFL1 / Fold change vs veh, UFL1 / RFU, COG3 / Fold change vs veh, COG3 / RFU, DIAPH2 / Fold change vs veh, DIAPH2 / RFU, SKA2 / Fold change vs veh, SKA2 / RFU, AFF3 / Fold change vs veh, AFF3 / RFU, LMF1 / Fold change vs veh, LMF1 / RFU, IPO11 / Fold change vs veh, IPO11 / RFU, DFFB / Fold change vs veh, DFFB / RFU, FOXP1 / Fold change vs veh, FOXP1 / RFU, CARD8 / Fold change vs veh, CARD8 / RFU, STRN3 / Fold change vs veh, STRN3 / RFU, ADK / Fold change vs veh, ADK / RFU, RASSF2 / Fold change vs veh, RASSF2 / RFU, WIPF1 / Fold change vs veh, WIPF1 / RFU, LARP1B / Fold change vs veh, LARP1B / RFU, RASA1 / Fold change vs veh, RASA1 / RFU, RB1 / Fold change vs veh, RB1 / RFU, PPFIA1 / Fold change vs veh, PPFIA1 / RFU, MAT2A / Fold change vs veh, MAT2A / RFU, CCT5 / Fold change vs veh, CCT5 / RFU, WDR92 / Fold change vs veh, WDR92 / RFU, CUX1 / Fold change vs veh, CUX1 / RFU, TTC7A / Fold change vs veh, TTC7A / RFU, TMEM135 / Fold change vs veh, TMEM135 / RFU, DEPTOR / Fold change vs veh, DEPTOR / RFU, CPM / Fold change vs veh, CPM / RFU, DNAJB6 / Fold change vs veh, DNAJB6 / RFU, CACNA2D3 / Fold change vs veh, CACNA2D3 / RFU, DTX4 / Fold change vs veh, DTX4 / RFU, TFCP2 / Fold change vs veh, TFCP2 / RFU, GMCL1 /// GMCL1P1 / Fold change vs veh, GMCL1 /// GMCL1P1 / RFU, AEBP2 / Fold change vs veh, AEBP2 / RFU, SNHG1 /// SNORD22 /// SNORD25 /// SNORD26 /// SNORD27 /// SNORD28 /// SNORD29 /// SNORD31 / Fold change vs veh, SNHG1 /// SNORD22 /// SNORD25 /// SNORD26 /// SNORD27 /// SNORD28 /// SNORD29 /// SNORD31 / Fold change (Aza/veh), C12orf56 (ProbeSet 11735607_a_at) / Fold change (ACY-1035/veh), C12orf56 (ProbeSet 11735607_a_at) / Fold change (Aza/veh), FGFR1OP (ProbeSet 11751329_s_at) / Fold change (ACY-1035/veh), FGFR1OP (ProbeSet 11751329_s_at) / Fold change (Aza/veh), VPS36 (ProbeSet 11739960_a_at) / Fold change (ACY-1035/veh), VPS36 (ProbeSet 11739960_a_at) / RFU SYPL1 (11715823_x_at) / Fold change /veh SYPL1 (11715823_x_at) / RFU IGFBP7 (11715501_s_at) / Fold change /veh IGFBP7 (11715501_s_at) / RFU REEP3 (11722064_at) / Fold change /veh REEP3 (11722064_at) / RFU IGLL1 (11728026_x_at) / Fold change /veh IGLL1 (11728026_x_at): dose or concentration left out as unconfirmed
Settings: ProbeSet 11753623_s_at; LIST D

Nc1ccc(-c2cccs2)cc1NC(=O)c1ccc2c(c1)cc(C1CC1)n2CCN1CCOCC1 [ACY-1035]
Fold change vs veh, LOC101060439 /// RAP1B: 0.85
